In brackets after ≈: the same amount, converted by molar mass. Inconclusive results are not listed. Activity calls are given as the source filed them. No rule for the calls is given here.
Tested on: M. tuberculosis H37Rv growth inhibition
Assay: Confirmatory growth inhibition assay against Mycobacterium tuberculosis H37Rv, potency (AID 1949);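 also: bacteria grown 7 days with compound before Alamar blue readout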

Row | SMILES | IC50
1 | CCOC(=O)COc1ccc2c(=O)c(-c3ccccc3Cl)c(C)oc2c1C | 0.98 µg/mL (≈ 2.53 µM)
2 | O=C(Nc1nc2ccc(F)cc2s1)c1ccc([N+](=O)[O-])o1 | 5.11 µg/mL (≈ 16.6 µM)
3 | c1ccc2sc(NC3=NCN(Cc4ccc5c(c4)OCO5)CN3)nc2c1 | 1.52 µg/mL (≈ 4.14 µM)
4 | CCN1CCN(c2ccc(NC(=O)c3cc(Br)cc(C)c3OC)cc2Cl)CC1 | 4.8 µg/mL (≈ 10.3 µM)
5 | CCCn1c(CNc2ccccc2O)nc2ccccc21 | 0.34 µg/mL (≈ 1.21 µM)
6 | CCCc1ccc(OCC(=O)Nc2ccc(F)cc2)cc1 | 0.85 µg/mL (≈ 2.96 µM)
7 | COC(=O)C(Oc1ccc2c(c1)oc(=O)c1cc(OC)ccc12)c1ccccc1 (centres undefined) | 1.32 µg/mL (≈ 3.38 µM)
8 | Cc1ccc(C)c(OCC(=O)Nc2ccc(C(=O)OC(C)C)cc2)c1C | 3.77 µg/mL (≈ 10.6 µM)
9 | CCOC(=O)C(C)Oc1ccc2c(=O)c(-c3ccc(Cl)cc3)coc2c1 (centres undefined) | > 50 µg/mL (inactive)
10 | CC(C)OC(=O)COc1ccc(-c2ccccc2)cc1 | > 50 µg/mL (inactive)
11 | COc1cccc(OC)c1C(=O)Nc1cccc(-c2nc3cc(C)ccc3o2)c1 | > 50 µg/mL (inactive)
12 | Cc1cccc(N2CCN(c3ncnc4sc5c(c34)CCCC5)CC2)n1 | 2.26 µg/mL (≈ 6.18 µM)
13 | O=C(Oc1ccccc1)c1ccc(COC(=O)c2ccco2)cc1 | 2.69 µg/mL (≈ 8.35 µM)
14 | O=[N+]([O-])c1ccc(NCCNc2nc3ccccc3nc2N2CCOCC2)cc1 | 1.64 µg/mL (≈ 4.16 µM)
15 | Cc1ccc2c(c1)c1c(n2CC(O)CN2CCCCCC2)C(=O)CCC1 (centres undefined) | 6.18 µg/mL (≈ 17.4 µM)
16 | CCOC(=O)c1c(NC(=O)COc2ccc(C(C)C)cc2)sc2c1CCC2 | 2.77 µg/mL (≈ 7.15 µM)
17 | Cc1ccccc1C(=O)Nc1sc2c(c1C(=O)NCCO)CCC(C(C)(C)C)C2 (centres undefined) | > 50 µg/mL (inactive)
18 | COc1ccc(C2CC(=O)Nc3ccc4ccccc4c32)c(I)c1O (centres undefined) | 3.48 µg/mL (≈ 7.82 µM)
19 | O=C(CCN1CCC(c2ccccc2)C1)c1cccs1 (centres undefined) | 11.5 µg/mL (≈ 40.2 µM)
20 | O=C(NC(=S)Nc1cccc(C(F)(F)F)c1)c1cccs1 | 2.39 µg/mL (≈ 7.23 µM)
21 | c1ccc2cc3nc4c(ccc5ccccc54)nc3cc2c1 | < 0.1 µg/mL

Row | SMILES | IC50
22 | CN1CCN(c2ccc(NC(=O)c3sc4ccccc4c3Cl)cc2)CC1 | > 50 µg/mL (inactive)
23 | Cc1cccc(N2CCN(C(=O)c3ccc(-c4ccccc4)cc3)CC2)c1C | 2.34 µg/mL (≈ 6.32 µM)
24 | N#Cc1ccc(NC(=O)CSc2ccc(Cl)cc2)cc1 | 2.94 µg/mL (≈ 9.71 µM)
25 | c1ccc(OCCCCn2cnc3ccccc32)cc1 | 16 µg/mL (≈ 60.2 µM)
26 | O=C(Nc1cccc2ncccc12)c1ccc([N+](=O)[O-])o1 | 4.28 µg/mL (≈ 15.1 µM)
27 | O=C(Nc1ccccc1N1CCCC1)c1ccc(-c2cccc(Cl)c2)o1 | 6.01 µg/mL (≈ 16.4 µM)
28 | COC(=O)COc1ccc2c(-c3cccc([N+](=O)[O-])c3)cc(=O)oc2c1 | 0.34 µg/mL (≈ 0.957 µM)
29 | CC1C(c2ccccc2)=[N+]([O-])C(C)(c2ccc(F)cc2)N1O (centres undefined) | > 50 µg/mL (inactive)
30 | OC(COc1ccc2ccccc2c1)CN1CCCN(CC(O)COc2ccc3ccccc3c2)CC1 (centres undefined) | 0.73 µg/mL (≈ 1.46 µM)
31 | CC1CCCc2sc(NC(=S)NC(=O)c3ccccc3)c(C#N)c21 (centres undefined) | 0.94 µg/mL (≈ 2.64 µM)
32 | CC(NS(=O)(=O)c1cccc(Cl)c1)C(=O)Nc1ccc(Br)cc1F (centres undefined) | 3 µg/mL (≈ 6.89 µM)
33 | COC(=O)c1ccc(OC(=O)c2ccc(C)c([N+](=O)[O-])c2)cc1 | > 50 µg/mL (inactive)
34 | CCOC(=O)c1c(CSc2ccccc2)n(-c2ccccc2)c2ccc(O)c(CN(C)C)c12 | 1.4 µg/mL (≈ 3.04 µM)
35 | CCCCn1c(NC(=S)Nc2ccccc2)nc2ccccc21 | 4.83 µg/mL (≈ 14.9 µM)
36 | O=C(NCc1ccccc1)c1cc2cc(Cl)cc(Cl)c2oc1=O | > 50 µg/mL (inactive)
37 | CC(C)(C)c1ccc(C(=O)NC(=S)Nc2ccc(C(=O)O)cc2)cc1 | 0.64 µg/mL (≈ 1.8 µM)
38 | CCOc1ccc(NC(=O)c2c(NC(=O)CNCCN3CCOCC3)sc3c2CCC3)cc1 | 1.33 µg/mL (≈ 2.81 µM)
39 | CSc1cccc(NC(=O)CSc2ccc(F)cc2)c1 | 2.86 µg/mL (≈ 9.3 µM)
40 | COC(=O)COc1ccc(NC(=O)c2ccc(-c3ccccc3)cc2)cc1 | < 0.1 µg/mL
41 | COC(=O)COc1ccc(NC(=O)c2ccc3c(c2)C(=O)N(C(C)(C)C)C3=O)cc1 | 0.32 µg/mL (≈ 0.78 µM)
42 | O=C(Nc1cccc(I)c1)C(Cl)Cl | 5.84 µg/mL (≈ 17.7 µM)

Row | SMILES | IC50
43 | Nc1ncnc(Sc2nc3ccccc3s2)c1[N+](=O)[O-] | 0.5 µg/mL (≈ 1.64 µM)
44 | CCSCC(=O)N1CCN(c2nnc(-c3ccccc3)c3ccccc23)CC1 | 14.5 µg/mL (≈ 36.9 µM)
45 | CCC(C)c1ccc(OCC(=O)NC2C3CC4CC(C3)CC2C4)cc1 (centres undefined) | 7.97 µg/mL (≈ 23.3 µM)
46 | CCN(CC)c1ccc(NC(=S)NCc2ccc(Cl)cc2)cc1 | 3.18 µg/mL (≈ 9.14 µM)
47 | CCc1ccc(C(=O)NC(=S)Nc2ccc(Cc3ccncc3)cc2)cc1 | 10.9 µg/mL (≈ 29.1 µM)
48 | CCOC(=O)C1=C(c2ccc(OC)cc2)C(=O)c2ccccc2C1=O | 6.6 µg/mL (≈ 19.6 µM)
49 | CCCCc1ccc(NC(=O)CSCc2ccc(OC)cc2)cc1 | 12.9 µg/mL (≈ 37.5 µM)
50 | COc1ccc(C(=O)NC(=S)NNC(=O)c2ccc(OC)c(OC)c2)cc1Br | < 0.1 µg/mL
51 | Clc1ccccc1COc1ccc2ccccc2c1CNCc1cccnc1 | 8.75 µg/mL (≈ 22.5 µM)
52 | O=C(NCC1COc2ccccc2O1)c1ccc(NC(=O)C2COc3ccccc3O2)cc1 (centres undefined) | 1.94 µg/mL (≈ 4.35 µM)
53 | O=C(Nc1ccc2c(c1)CCC2)c1ccc(Br)s1 | 1.45 µg/mL (≈ 4.5 µM)
54 | Cc1ccc(Cl)cc1N1CCN(CC(O)COc2ccc(Cl)cc2Cl)CC1 (centres undefined) | 6.67 µg/mL (≈ 15.5 µM)
55 | CCOC(=O)COc1ccc(Br)c(C=O)c1 | 5.47 µg/mL (≈ 19.1 µM)
56 | COc1ccc(C)cc1NC(=O)c1ccc(Cc2ccc(C)cc2)o1 | 2.71 µg/mL (≈ 8.08 µM)
57 | O=[N+]([O-])c1ccc(N2CCN(C(=S)NCc3ccc(Cl)cc3)CC2)cc1 | 2.58 µg/mL (≈ 6.6 µM)
58 | Cc1ccc(-c2cc(C(=O)N3CCCc4ccccc43)no2)cc1 | 9.33 µg/mL (≈ 29.3 µM)
59 | CN1CCN(c2cc(-c3ccccc3)nc3c(C(F)(F)F)cccc23)CC1 | 1.88 µg/mL (≈ 5.06 µM)
60 | Cc1cccc(COc2ccc(/C=C/[N+](=O)[O-])cc2)c1 | 21.4 µg/mL (≈ 79.5 µM)
61 | O=C(Oc1ccccc1)c1cccc(COC(=O)c2cc3ccccc3oc2=O)c1 | 15.8 µg/mL (≈ 39.5 µM)
62 | O=C(CNS(=O)(=O)c1ccc([N+](=O)[O-])cc1)OCc1c(F)cccc1Cl | 17.3 µg/mL (≈ 43 µM)
63 | O=C(Nc1nc2ccccc2[nH]1)c1cccc(Cl)c1 | 10.4 µg/mL (≈ 38.3 µM)

Row | SMILES | IC50
64 | CCOC(=O)COc1ccc2c(=O)c(Oc3cnn(-c4ccccc4)c3)c(C)oc2c1 | 0.61 µg/mL (≈ 1.45 µM)
65 | CCOc1ccc(-c2[nH]ncc2-c2ccccc2)c(O)c1C | 4.39 µg/mL (≈ 14.9 µM)
66 | CC(C)Oc1ccc(Nc2ncnc3ccc(Br)cc23)cc1 | 2.5 µg/mL (≈ 6.98 µM)
67 | O=C(Oc1cccc2cccnc12)c1cccc([N+](=O)[O-])c1 | 10.8 µg/mL (≈ 36.7 µM)
68 | CC(C)Oc1ccc(NC(=O)CSc2nc3ccccc3s2)cc1 | 6.12 µg/mL (≈ 17.1 µM)
69 | COc1ccc(Nc2nc(-c3ccccn3)cs2)c(OC)c1 | < 0.1 µg/mL
70 | O=C(c1ccc(Cl)cc1)c1ccc(OCC(O)CN2CCN(Cc3ccccc3)CC2)cc1 (centres undefined) | 2.75 µg/mL (≈ 5.91 µM)
71 | CC(=O)c1ccc(NCCC(=O)c2ccco2)cc1 | 2.8 µg/mL (≈ 10.9 µM)
72 | COC(=O)COc1ccc2c(=O)c(-c3ccccc3Cl)c(C)oc2c1 | 0.42 µg/mL (≈ 1.17 µM)
73 | Cn1nc([N+](=O)[O-])nc1Oc1ccc(C(C)(C)C)cc1 | < 0.1 µg/mL
74 | Nc1nc2ccccc2n1CCOc1cccc2ccccc12 | 4.95 µg/mL (≈ 16.3 µM)
75 | C#CCSc1nnc(-c2ccc([N+](=O)[O-])cc2)o1 | < 0.1 µg/mL
76 | O=C(Nc1nc(SCc2ccc(F)cc2)ns1)c1cc(F)c(F)cc1Cl | 2.35 µg/mL (≈ 5.65 µM)
77 | c1ccc2c(NCCc3c[nH]c4ccccc34)c3ccccc3nc2c1 | 1.51 µg/mL (≈ 4.48 µM)
78 | Cn1nc([N+](=O)[O-])nc1Oc1ccc(Br)cc1 | 7.92 µg/mL (≈ 26.5 µM)
79 | COc1ccc(C23CC4CC(CC(C4)C2)C3)cc1C(=O)NCCN(C)C | 10.8 µg/mL (≈ 30.3 µM)
80 | Cc1cc(N)cc(-c2nc3ccccc3o2)c1O | 16.4 µg/mL (≈ 68.4 µM)
81 | O=[N+]([O-])/C=C/c1ccccc1OCc1cccc(F)c1 | 6.26 µg/mL (≈ 22.9 µM)
82 | Fc1ccc(C2=NN(c3ccc(Cl)cc3)C(c3cccs3)C2)cc1 (centres undefined) | 5.63 µg/mL (≈ 15.8 µM)
83 | Nc1c2c(nc3sc4c(c13)CCCC4)CCCC2 | 0.6 µg/mL (≈ 2.32 µM)
84 | Cc1ccc(SCC(=O)Nc2ccc(C)c([N+](=O)[O-])c2)cc1 | 2.18 µg/mL (≈ 6.89 µM)

— PubChem BioAssay AID1949 (Southern Research Institute, 2009)
